Reference: the NIST ThermoML archive (doi:10.1021/je300670n)

How the values were obtained:
[1] = refractive index (Na D-line) (dimensionless); details: 101.33 kPa, Liquid, Standard Abbe refractometry
[2] = Liquid; for mass density: 298.15 K, 101.33 kPa, Vibrating tube method; for vapor or sublimation pressure: Ebulliometric method (Recirculating still)
[3] = excess molar enthalpy (molar enthalpy of mixing); xn = mol fraction of the nth substance listed; details: 298.15 K, 101 kPa, Liquid, Flow calorimetry
[4] = xn = mol fraction of the nth substance listed; details: 101 kPa, Liquid, Vibrating tube method

CCCCO [butan-1-ol]
Details | refractive index | vapor or sublimation pressure [kPa]
[1], 298.15 K | 1.3972 | –
[2], 345.91 K | – | 15.6
[2], 358.05 K | – | 27.4
[2], 359.46 K | – | 29.4
[2], 366.26 K | – | 39.3
[2], 369.57 K | – | 45.1
[2], 372.02 K | – | 49.8
[2], 374.43 K | – | 54.9
[2], 376.72 K | – | 60.1
[2], 378.46 K | – | 64.2
[2], 380.74 K | – | 70.2
[2], 382.55 K | – | 75.1
[2], 384.3 K | – | 80.1
[2], 385.78 K | – | 84.6
[2], 390.41 K | – | 100

Details | mass density [kg/m3]
[2] | 805.97

CCOC(C)(C)CC [1,1-dimethylpropyl ethyl ether] + CCC(C)O
[3]
Details | excess molar enthalpy [kcal/mol]
x1 = 0.1011 | 0.0648
x1 = 0.2007 | 0.123
x1 = 0.3008 | 0.172
x1 = 0.4013 | 0.208
x1 = 0.5005 | 0.229
x1 = 0.6008 | 0.236
x1 = 0.7012 | 0.226
x1 = 0.8001 | 0.196
x1 = 0.899 | 0.133

[4]
Details | mass density [kg/m3]
297.67 K, x1 = 0.7012 | 770.2
297.67 K, x1 = 0.8001 | 766.9
297.68 K, x1 = 0.5005 | 777.9
297.68 K, x1 = 0.6008 | 774
297.68 K, x1 = 0.899 | 763.8
297.69 K, x1 = 0.1011 | 796.8
297.69 K, x1 = 0.2007 | 791.6
297.69 K, x1 = 0.3008 | 786.6
297.69 K, x1 = 0.4013 | 782

CCOC(C)(C)CC [1,1-dimethylpropyl ethyl ether] + CCCCO
[3]
Details | excess molar enthalpy [kcal/mol]
x1 = 0.101 | 0.0285
x1 = 0.2005 | 0.06
x1 = 0.3022 | 0.0905
x1 = 0.401 | 0.116
x1 = 0.5023 | 0.135
x1 = 0.6005 | 0.147
x1 = 0.7009 | 0.147
x1 = 0.7999 | 0.133
x1 = 0.902 | 0.0913

mass density [kg/m3], [4]
Details | x1 = 0.101 | x1 = 0.2005 | x1 = 0.3022 | x1 = 0.401 | x1 = 0.5023 | x1 = 0.6005 | x1 = 0.7009 | x1 = 0.7999 | x1 = 0.902
297.7 K | 801 | 796.1 | – | 786.6 | 782 | – | – | – | 764.8
297.71 K | – | – | 791.1 | – | – | 777.5 | 773.3 | 769.2 | –

CCOC(C)(C)CC [1,1-dimethylpropyl ethyl ether] + CCC(C)(C)O
[3]
Details | excess molar enthalpy [kcal/mol]
x1 = 0.1005 | 0.0565
x1 = 0.2006 | 0.107
x1 = 0.3013 | 0.151
x1 = 0.4018 | 0.187
x1 = 0.5013 | 0.214
x1 = 0.601 | 0.23
x1 = 0.7003 | 0.232
x1 = 0.8011 | 0.215
x1 = 0.9003 | 0.159

[4]
Details | mass density [kg/m3]
297.7 K, x1 = 0.1005 | 798.8
297.71 K, x1 = 0.2006 | 793.2
297.71 K, x1 = 0.3013 | 788.2
297.71 K, x1 = 0.4018 | 783.4
297.71 K, x1 = 0.5013 | 778.9
297.71 K, x1 = 0.601 | 774.7
297.71 K, x1 = 0.7003 | 770.9
297.71 K, x1 = 0.8011 | 767.1
297.72 K, x1 = 0.9003 | 763.7

CCOC(C)(C)CC [1,1-dimethylpropyl ethyl ether]
Details | refractive index | vapor or sublimation pressure [kPa]
[1], 293.15 K | 1.39112 | –
[1], 298.15 K | 1.38858 | –
[2], 324.31 K | – | 17.7
[2], 331.83 K | – | 24
[2], 343.83 K | – | 37.6
[2], 345.82 K | – | 40.3
[2], 349.21 K | – | 45.4
[2], 351.71 K | – | 49.5
[2], 355.12 K | – | 55.5
[2], 357.39 K | – | 59.9
[2], 358.01 K | – | 61
[2], 358.09 K | – | 61.3
[2], 359.96 K | – | 65.1
[2], 362.13 K | – | 69.7
[2], 364.42 K | – | 74.9
[2], 366.44 K | – | 79.6
[2], 367.36 K | – | 81.8
[2], 368.16 K | – | 83.8
[2], 373.7 K | – | 98.9
[2], 374.41 K | – | 101

Details | mass density [kg/m3]
[2] | 760.52

CCC(C)O (configuration not stated) [butan-2-ol]
Details | refractive index | vapor or sublimation pressure [kPa]
[1], 298.15 K | 1.3951 | –
[2], 330.11 K | – | 15.7
[2], 337.99 K | – | 23.3
[2], 345.15 K | – | 32.7
[2], 354.49 K | – | 49.4
[2], 357.15 K | – | 55.3
[2], 358.16 K | – | 57.3
[2], 358.98 K | – | 59.6
[2], 362.88 K | – | 69.9
[2], 365.08 K | – | 76.3
[2], 366.13 K | – | 79.5
[2], 367.13 K | – | 82.9
[2], 371.51 K | – | 98.3
[2], 372.43 K | – | 100.6

Details | mass density [kg/m3]
[2] | 802.71

CCC(C)(C)O [2-methylbutan-2-ol]
Details | refractive index | vapor or sublimation pressure [kPa]
[1], 298.15 K | 1.40248 | –
[2], 334.98 K | – | 18.8
[2], 344.45 K | – | 29.4
[2], 351.18 K | – | 39.5
[2], 354.1 K | – | 44.7
[2], 356.81 K | – | 50.1
[2], 358.12 K | – | 52.8
[2], 359.14 K | – | 55
[2], 361.21 K | – | 59.7
[2], 363.43 K | – | 65.2
[2], 365.23 K | – | 69.8
[2], 367.1 K | – | 75
[2], 368.88 K | – | 80.1
[2], 371.04 K | – | 86.7
[2], 375.78 K | – | 102.7

Details | mass density [kg/m3]
[2] | 805.29
